Patent publication US20050123571A1, “Modulation of apoptosis” (priority 2003, published 2005)
Where a SMILES comes first, the peptide text is derived from it. The star is where a group is joined. Cbz = O=C(OCc1ccccc1)*; CH2F = FC*

Columns and labels:
Ian4−/− BBDP T cells = experiment: Mitochondrial membrane potential (Δψm) by MitoLight flow microfluorometry; type: cell-based, rat; settings: control incubation with uncoupler, 50 μM, 15 minutes, 37° C.; positive control for dissipation of Δψm
Experimental: Flat bottom 6-well culture plates (Falcon, Franklin Lakes, N.J.) were incubated with 10 μg/well anti-CD3 mAb, 10 μg/well anti-CD28 mAb, or both, in PBS at 4° C. After overnight incubation, plates were rinsed three times with PBS. Nylon wool-purified T cells were cultured in antibody-coated wells at 6×10^6 cells/well in 3 ml complete AIM-V media (AIM-V plus 55 μM 2-mercaptoethanol, Sigma) for 17, 40, or 68 hr in a humidified incubator at 37° C. with 5% CO2. Un-stimulated cells were incubated in complete AIM-V alone. Mitochondrial membrane potential (Δψm) of thymocytes and T cells was measured by two- or three-color flow microfluorometry using MitoLight™ (Chemicon, Temecula, Calif.) alone or in combination with biotin-conjugated anti-αβTCR mAb. Mitolight™ was employed according to the manufacturer's instructions. It is a lipophilic cation with a cellular distribution similar to that of JC-1. […] When the concentration of JC-1 reaches a threshold, it forms aggregate, causing a shift in its absorbed and emitted fluorescence (S. T. Smiley et al., Proc. Natl. Acad. Sci. U.S.A 88, 3671-3675 (1991)). […] For each experiment control and BBDP T cells were analyzed for both red and green fluorescence after Mitolight™ labeling. […] For each analysis, a minimum of 10,000 events was analyzed.

[1] = tested on: Lymph node T cells from BBDP rats; experiment: Caspase inhibition, sub-diploid DNA; type: cell-based, rat; settings: 17 hr of culture, varying concentrations
Experimental: The percentage of T cells with sub-diploid DNA was measured as described (I. Nicoletti, G. Migliorati, M. C. Pagliacci, F. Grignani, C. Riccardi, J. Immunol. Methods 139, 271-279 (1991)). Briefly, freshly isolated or in vitro stimulated lymph node T cells were washed twice with PBS and centrifuged at 1500 rpm for 5 min. Pellets (2×10^6) were resuspended in 200 μl of PBS, fixed in 70% cold ethanol, and stored at 4° C. until used. At the time of analysis, cells were washed twice with PBS and incubated at 25° C. for 40 min in 500 μl of PBS containing 0.1% Triton X-100 and 50 μg of RNase (Boehringer Mannheim, Indianapolis, Ind.). Propidium iodide (10 μg, Sigma, St. Louis, Mo.) was added, and the suspension was incubated in the dark for 15 min. DNA content was determined by flow microfluorometry using a FACStarR® instrument (Becton Dickinson, San Jose, Calif.). Lymphoid cells were identified electronically by their forward and side light-scatter characteristics. For each analysis, a minimum of 10,000 events was analyzed.
Lymph node T cells from BBDP rats were prepared as described above and cultured in AIM-V medium in the presence or absence of varying concentrations of the caspase inhibitors Z-VAD-FMK, Z-VDVAD, Z-DEVD, D-IETD, and Z-LEHD obtained from R&D Systems (Minneapolis, Minn.). […] Cells were then harvested, and the percentage of cells with sub-diploid DNA was determined as above.

Structure (SMILES)	percentage of T cells with high Δψm (Ian4−/− BBDP T cells)	apoptosis of Ian4−/− T cells (percentage of cells with sub-diploid DNA) [1]
N#CC(C#N)=NNc1cccc(Cl)c1 [CCCP, carbonyl cyanide m-chlorophenyl-hydrazone]	~4%	
COC(=O)C[C@H](NC(=O)[C@H](C)NC(=O)[C@@H](NC(=O)OCc1ccccc1)C(C)C)C(=O)CF [Z-VAD-frnk] (Cbz-Val-Ala-Asp(OMe)-CH2F)		prevented apoptosis
